In patent US20130116277A1, “ALDO-KETO REDUCTASE SUBFAMILY 1C3 (AKR1C3) INHIBITORS” (priority 2007, published 2013):
Where “and” joins values, the source holds several entries; their conditions need not be identical. Identical values can stand only once. Like-named read-outs stand apart in the source and are kept apart here.

Tests used:
AKR1C3 [1] = target: T1, AKR1C3 (Homo sapiens, UniProt P42330)
T1 sequence (P42330 1-323): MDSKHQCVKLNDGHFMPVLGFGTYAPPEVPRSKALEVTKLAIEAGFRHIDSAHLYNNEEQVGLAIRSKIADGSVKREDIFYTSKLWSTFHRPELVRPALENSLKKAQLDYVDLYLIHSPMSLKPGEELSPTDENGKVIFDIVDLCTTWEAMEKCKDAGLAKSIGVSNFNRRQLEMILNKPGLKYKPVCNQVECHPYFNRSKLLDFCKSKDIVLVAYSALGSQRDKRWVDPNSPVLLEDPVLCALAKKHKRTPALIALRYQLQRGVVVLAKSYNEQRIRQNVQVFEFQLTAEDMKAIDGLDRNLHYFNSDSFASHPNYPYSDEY
Experimental: (§1) AKR1C3 expression was checked by Western blot to ensure that the cells over-express AKR1C3. […] Medium was changed to RPMI+1% csFBS without phenol red and maintained in this medium for 3 days to reduce basal hormone levels. […] The data was plotted in SigmaPlot (Systat Software Inc.) and the IC50 values for inhibitors were calculated.
(§2) HEK-293 cells stably transfected with AKR1C3 were plated in 24 well plates and were maintained in RPMI+1% csFBS without phenol red for 2 days to reduce the basal steroid levels.

ER-β = ER-β (Homo sapiens, UniProt Q92731); assay: ER-β ligand binding domain competitive binding with [3H]Estradiol
[2] = Liver microsome incubation (HLM Phase I and Phase I + II), LC-MS/MS; assay type: in vitro ADME, human; conditions: for microsomal CLint: human, human liver microsomes
Experimental: Stock solutions of prespective AKR1C3 inhibitors were prepared in DMSO at 5 mM and were incubated with liver microsomes (0.1 mg/mL). Incubations were conducted at 37° C. in a shaking water bath for 10 minutes (microsomes). Incubation durations were selected based on time course study (microsomes) or published literature (recombinant enzymes). Prepared samples were analyzed using LC-MS/MS.

ER-alpha = target: T2, ER-alpha (Homo sapiens, UniProt P03372); assay: ER-alpha transactivation (ERE-LUC luciferase) in HEK-293 cells; assay type: cell-based;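 note: HEK-293 cells co-transfected with an ER-alpha expression plasmid, an ERE-driven firefly luciferase reporter and a CMV Renilla control, with the firefly signal normalized to Renilla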
T2 construct: expressed in transfected cells; host or cells: HEK-293
T2 sequence (P03372 1-595): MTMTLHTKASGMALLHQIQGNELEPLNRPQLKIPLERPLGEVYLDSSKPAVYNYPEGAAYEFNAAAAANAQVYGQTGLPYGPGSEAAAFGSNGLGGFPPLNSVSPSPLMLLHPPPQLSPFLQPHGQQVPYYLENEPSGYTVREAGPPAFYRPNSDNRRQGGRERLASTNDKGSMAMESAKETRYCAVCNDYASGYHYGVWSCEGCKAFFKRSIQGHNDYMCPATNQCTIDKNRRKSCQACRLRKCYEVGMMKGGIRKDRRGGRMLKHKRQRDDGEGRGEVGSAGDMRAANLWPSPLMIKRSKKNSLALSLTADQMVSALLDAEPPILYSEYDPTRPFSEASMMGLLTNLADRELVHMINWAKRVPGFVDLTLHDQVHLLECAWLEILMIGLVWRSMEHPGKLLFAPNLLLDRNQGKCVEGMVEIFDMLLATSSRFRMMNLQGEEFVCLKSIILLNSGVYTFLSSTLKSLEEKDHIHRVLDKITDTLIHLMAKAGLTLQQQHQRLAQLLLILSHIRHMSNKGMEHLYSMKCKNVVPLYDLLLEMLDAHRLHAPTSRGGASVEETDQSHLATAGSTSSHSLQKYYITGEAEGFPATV

AKR1C3 [3] = target: T1, AKR1C3; assay: Purified AKR1C3 enzyme assay, [14C]-A'dione to testosterone, TLC based; assay type: biochemical; design: GST (N); made in house; host or cells: bacterial culture, IPTG induced (E. coli BL21-DE3 is named only for the crystallography preparation)
Experimental: Perkin Elmer; […] American Radiolabeled Chemicals, St. Louis, Mo.). The reaction was stopped by the addition of 400 μl ethyl acetate, vortexed, and spun for […] at 2000 rpm. The upper layer was transferred to a new tube and air dried. The pellet was resuspended in 25 μl of methanol, spotted on TLC plates and fractionated in TLC chamber with 3:1 chloroform:ethyl acetate. Once the mobile phase reached the top, the plates were dried and exposed to a phosphoimager screen overnight. […] Perkin Elmer) was incubated at 37° C. for 60 min. The reaction was stopped by the addition of 400 μl ethyl acetate, vortexed, and spun for […] at 2000 rpm. The upper layer was transferred to a new tube and air dried. The pellet was resuspended in 25 μl of methanol, spotted on TLC plates and fractionated in TLC chamber with 3:1 chloroform:ethyl acetate. Once the mobile phase reached the top, the plates were dried and exposed to a phosphoimager screen overnight.

AKR1C3 [4] = target: T1, AKR1C3; assay: cell-based
Experimental: as §1, §2

ER-α = target: T3, ER-α (Homo sapiens, UniProt P03372); assay: ER-α ligand binding domain competitive binding with [3H]Estradiol
T3 sequence (P03372 311-547 limits assumed): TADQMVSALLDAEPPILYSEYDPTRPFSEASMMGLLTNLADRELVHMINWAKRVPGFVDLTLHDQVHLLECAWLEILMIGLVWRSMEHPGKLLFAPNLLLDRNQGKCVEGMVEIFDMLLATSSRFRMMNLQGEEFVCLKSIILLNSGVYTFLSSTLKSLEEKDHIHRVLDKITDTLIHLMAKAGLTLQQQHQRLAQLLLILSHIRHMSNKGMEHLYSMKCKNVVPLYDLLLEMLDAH

ER-beta = target: T4, ER-beta (Homo sapiens, UniProt Q92731); assay: ER-beta transactivation (ERE-LUC luciferase) in HEK-293 cells; assay type: cell-based;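 note: HEK-293 cells transiently transfected with an ER-β expression plasmid and ERE-LUC reporter, firefly luciferase read-out normalized to co-transfected Renilla luciferase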
T4 construct: expressed in transfected cells; host or cells: HEK-293

AKR1C3 [5] = target: T1, AKR1C3; conditions: 100 nM androstenedione, 24 hrs, LC-MS/MS (FIG. 2)
Experimental: as §1, §2

T4 sequence (Q92731 whole entry, species assumed): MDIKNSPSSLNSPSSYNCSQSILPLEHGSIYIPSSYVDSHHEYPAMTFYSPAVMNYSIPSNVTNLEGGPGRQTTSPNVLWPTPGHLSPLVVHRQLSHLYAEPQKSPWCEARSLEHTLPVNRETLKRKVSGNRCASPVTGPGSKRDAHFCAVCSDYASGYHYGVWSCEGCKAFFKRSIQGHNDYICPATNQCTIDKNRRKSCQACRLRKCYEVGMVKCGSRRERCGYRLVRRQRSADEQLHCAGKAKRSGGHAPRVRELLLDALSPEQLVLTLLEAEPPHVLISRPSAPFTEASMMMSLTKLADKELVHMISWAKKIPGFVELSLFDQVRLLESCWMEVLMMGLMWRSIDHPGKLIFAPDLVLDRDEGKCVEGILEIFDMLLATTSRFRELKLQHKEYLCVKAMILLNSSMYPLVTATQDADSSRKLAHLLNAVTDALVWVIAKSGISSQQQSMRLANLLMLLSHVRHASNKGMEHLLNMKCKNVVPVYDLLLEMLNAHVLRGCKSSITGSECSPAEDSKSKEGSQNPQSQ
Sequence of ER-β (Q92731 264-498 limits assumed, species assumed): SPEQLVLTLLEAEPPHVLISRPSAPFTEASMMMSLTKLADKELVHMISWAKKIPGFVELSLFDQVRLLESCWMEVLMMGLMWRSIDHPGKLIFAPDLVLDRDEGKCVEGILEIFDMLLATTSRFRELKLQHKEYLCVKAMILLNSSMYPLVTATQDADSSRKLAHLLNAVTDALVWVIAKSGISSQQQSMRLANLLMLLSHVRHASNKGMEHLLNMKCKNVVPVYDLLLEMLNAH

For COc1ccc(C=CC(=O)O)cc1OC [3,4,dimethoxy cinnamic acid], the IC50 (AKR1C3 [1]) was > 10 µM.

With O=c1c2ccc(O)cc2c(-c2ccc(C(F)(F)F)cc2)cn1-c1ccc(O)cc1 [Compound 13, 6-hydroxy-2-(4-hydroxyphenyl)-4-(4-(trifluoromethyl)phenyl)isoquinolin-1(2H)-one] the Ki (ER-β) was 157 nM, the “HLM Phase I CLint” value ([2]; HLM Phase I) was 0.8 µL/min/mg and the “HLM Phase I + II CLint” value ([2]; HLM Phase I + II) was 19.1 µL/min/mg. For the same compound, the “HLM Phase I + II T-1/2” value ([2]; HLM Phase I + II) was 40 min and 36.12 min, the microsomal CLint ([2]; HLM Phase I + II, read-out: HLM Phase I + II CLint) was 17 µL/min/mg and the microsomal CLint ([2]; HLM Phase I, read-out: HLM Phase I CLint) was < 1 µL/min/mg. For the same compound, the EC50 (ER-alpha; agonist mode, drug alone, read-out: Agonist ER-α) was > 10 µM, the IC50 (ER-alpha; antagonist mode, in combination with estradiol, read-out: Antagonist ER-α) was > 10 µM and the inhibition at 10 µM (AKR1C3 [3]; 10 μM inhibitor, purified AKR1C3 TLC based enzyme assay, read-out: AKR1C3 inhibition at 10 μM) was 52%. For the same compound, the inhibition at 10 µM (AKR1C3 [3]; read-out: % inhibition from control HSD-5 (10 uM)) was 52%, the IC50 (AKR1C3 [4]) was 0.451 µM and the Ki (ER-α) was > 1510 nM. The EC50 (ER-beta; agonist mode, drug alone, read-out: Agonist ER-β) was > 10 µM and the IC50 (ER-beta; antagonist mode, in combination with estradiol, read-out: Antagonist ER-β) was 0.677 µM.

For NC(=O)c1ccc(-n2cc(-c3ccc(C(F)(F)F)c(F)c3)c3cc(O)ccc3c2=O)cc1 [Compound 215, 4-(4-(3-fluoro-4-(trifluoromethyl)phenyl)-6-hydroxy-1-oxoisoquinolin-2(1H)-yl)benzamide], the “Inhibition of AKR1C3 dependent conversion of androstenedione to testosterone” value (AKR1C3 [5]) was “potently inhibited”.
